Assay results: paper PMC10584170, “Machine learning-based phenotypic imaging to characterise the targetable biology of Plasmodium falciparum male gametocytes for the development of transmission-blocking antimalarials” (PLOS Pathogens, 2023)
Where two headings read alike, the source gives them in different places.

Experiments:
[1] = test system: P. falciparum male gametocytes; assay: P. falciparum Dual Gamete Formation Assay (PfDGFA), male readout (exflagellation); type: cell-based, Plasmodium falciparum NF54; settings: for HitlevelM: number of replicates with >50% inhibition in the male readout; for Selectivity Ratio M: HepG2 Tox50 versus male IC50; for inhibition at 2 µM / IC50: Plasmodium falciparum; for inhibition at 2 µM: 24h preincubation with gametocytes; for IC50: PfDGFA, 24 h incubation with gametocytes before induction, exflagellation readout, read-out: Male IC50
Procedure: (§1) P. falciparum NF54 (originally isolated from an imported malaria case in the Netherlands in the 1980s; BEI Resources, cat. No. MRA-1000) strain asexual parasites were maintained between 0.3–5% parasitaemia by regular passage in complete culture medium (RPMI supplemented with 25 mM HEPES, 50 μg ml^−1 hypoxanthine, 4.8 g l^−1 NaHCO3, 2mM L-glutamine, 5% pooled type AB serum, 0.5% Albumax II (Gibco)) at 4% haematocrit in washed whole blood (National Blood and Transfusion Service or Centro de Transfusiones de la Comunidad de Madrid CTCM) under a 1% O2/3% CO2/96% N2 environment. Gametocytes were induced by seeding culture flasks at 2% parasitaemia/4% haematocrit and subjecting them to daily medium changes for 14 days whilst maintaining a temperature of 37°C at all times. On Day 14, the maturity of gametocytes was assessed by quantifying male gametogenesis (exflagellation). A 20 μl sample of gametocyte culture was mixed with equal volume of ookinete medium (complete culture medium supplemented with 0.1 μM xanthurenic acid) at room temperature and transferred to a haemocytometer. After 20 min at room temperature, exflagellation was accurately quantified as described in Delves et al. 2016 [17].
(§2) The Pf DGFA was performed as described in Delves et al. 2016 [17]. […] Plates were then incubated for 24 h at 37°C in a humidified box under a 1% O2/3% CO2/96% N2 gas mix. Gametogenesis was triggered by addition of 10 μl per well of ookinete medium + 0.27 μg ml^-1 Cy3-labelled anti-Pfs25 antibody. Plates were incubated on a metal block at 4°C for 4 min to ensure even cooling, then 28°C for a further 4 min. Exflagellation was recorded by capturing 10 frames over 1 s under brightfield illumination using a x4 objective with a 1.5x zoom (effectively x6) attached to an automated Nikon Ti fluorescence microscope. After recording exflagellation, plates were incubated for a further 24 h in the dark at 28°C to ensure maximal expression of Pfs25 by female gametes. The plates were then returned to the microscope and female gametes imaged at x6 using fluorescence microscopy.
(§3) Exflagellation centres and female gametes were quantified using custom image analysis pipelines developed within ICY Bioimage Analysis (https://icy.bioimageanalysis.org/).

[2] = test system: P. falciparum female gametocytes; assay: P. falciparum Dual Gamete Formation Assay (PfDGFA), female readout (Pfs25-positive female gametes); type: cell-based, Plasmodium falciparum NF54; settings: for HitlevelF: number of replicates with >50% inhibition in the female readout; for Selectivity ratio F: HepG2 Tox50 versus female IC50; for inhibition at 2 µM / IC50: Plasmodium falciparum; for inhibition at 2 µM: 24h preincubation with gametocytes; for IC50: PfDGFA, 24 h incubation with gametocytes before induction, female gamete readout, read-out: Female IC50
Procedure: as §1, §2, §3

[3] = 2µM, 24h preincubation with gametocytes prior to induction of gametogenesis, average of replicates
[4] = 2µM, 24h preincubation with gametocytes prior to induction of gametogenesis, replicate R1
[5] = 2µM, 24h preincubation with gametocytes prior to induction of gametogenesis, replicate R3
[6] = 2µM, 24h preincubation with gametocytes prior to induction of gametogenesis, replicate R4
[7] = PfDGFA at 2µM, 24h preincubation with gametocytes prior to induction of gametogenesis, replicate R1
[8] = PfDGFA at 2µM, 24h preincubation with gametocytes prior to induction of gametogenesis, replicate R3
[9] = PfDGFA at 2µM, 24h preincubation with gametocytes prior to induction of gametogenesis, replicate R4
[10] = PfDGFA at 2µM, 24h preincubation, average of replicates
[11] = PfDGFA at 2µM, average of replicates, read-out: Average inhibition male (%)
[12] = PfDGFA at 2µM, replicate R1, read-out: % inhibition male (individual replicates) R1
[13] = PfDGFA at 2µM, replicate R2, read-out: % inhibition male (individual replicates) R2
[14] = PfDGFA at 2µM, replicate R3, read-out: % inhibition male (individual replicates) R3
[15] = PfDGFA at 2µM, replicate R4, read-out: % inhibition male (individual replicates) R4
[16] = PfDGFA at 2µM, average of replicates, read-out: Average inhibition female (%)
[17] = PfDGFA at 2µM, replicate R1, read-out: % inhibition female (individual replicates) R1
[18] = PfDGFA at 2µM, replicate R2, read-out: % inhibition female (individual replicates) R2
[19] = PfDGFA at 2µM, replicate R3, read-out: % inhibition female (individual replicates) R3
[20] = PfDGFA at 2µM, replicate R4, read-out: % inhibition female (individual replicates) R4

Row | SMILES | Average inhibition male (%) [1, 3] | % inhibition male (individual replicates) R1 [1, 4] | % inhibition male (individual replicates) R3 [1, 5] | % inhibition male (individual replicates) R4 [1, 6] | HitlevelM ([1]; 2µM, 24h preincubation) | Average inhibition female (%) [2, 3] | % inhibition female (individual replicates) R1 [2, 4] | % inhibition female (individual replicates) R3 [2, 5] | % inhibition female (individual replicates) R4 [2, 6] | HitlevelF ([2]; 2µM, 24h preincubation) | % inhibition male (individual replicates) R1 [1, 7] | % inhibition male (individual replicates) R4 [1, 9] | Average inhibition male (%) [1, 10] | % inhibition female (individual replicates) R1 [2, 7] | % inhibition female (individual replicates) R3 [2, 8] | % inhibition female (individual replicates) R4 [2, 9] | Average inhibition female (%) [2, 10] | Selectivity Ratio M [1] | inhibition at 2 µM [1, 11] | inhibition at 2 µM [1, 12] | other results
1 | CC(C)(C)Nc1cc(C2CC2)nc(-c2ccccn2)n1 [TCMDC-124453] | 8.7% | 15.7% | 8.7% | 17.6% | 0 | 32.5% | 36.3% | 27.2% | 34.1% | 0 | – | – | – | – | – | – | – | – | – | – | –
2 | Cc1ccc(-c2nnc3c4ccccc4c(C)nn23)cc1S(=O)(=O)N1CCN(CCO)CC1 [TCMDC-124482] | – | – | – | – | – | – | – | – | – | – | 14.3% | 34.9% | 14.9% | 11.9% | -40.2% | 14.7% | -3.6% | – | – | – | % inhibition male (individual replicates) R3 [1, 8]: -2.0%
3 | Cn1c(Sc2ncnc3sccc23)nc2ccccc21 [TCMDC-124514] | – | – | – | – | – | – | – | – | – | – | – | – | – | – | – | – | – | 138.65 | 74.4% | 82.1% | inhibition at 2 µM [1, 13]: 75.9%; inhibition at 2 µM [1, 14]: 86.7%; inhibition at 2 µM [1, 15]: 52.9%; IC50 [1]: 720 nM; HitlevelM ([1]; 2µM): 4; Selectivity ratio F [2]: 179.15; inhibition at 2 µM [2, 16]: 56.9%; inhibition at 2 µM [2, 17]: 48.2%; inhibition at 2 µM [2, 18]: 73.8%; inhibition at 2 µM [2, 19]: 37.5%; inhibition at 2 µM [2, 20]: 68.1%; IC50 [2]: 560 nM; HitlevelF ([2]; 2µM): 2
4 | O=C(NC1CCN(Cc2ccccc2)CC1)c1cc(C(=O)NC2CCN(Cc3ccccc3)CC2)cc(C(=O)NC2CCN(Cc3ccccc3)CC2)c1 [TCMDC-124568] | – | – | – | – | – | – | – | – | – | – | – | – | – | – | – | – | – | 12.97 | 80% | 85% | inhibition at 2 µM [1, 13]: 82%; inhibition at 2 µM [1, 14]: 68.9%; inhibition at 2 µM [1, 15]: 84.2%; IC50 [1]: 7710 nM; HitlevelM ([1]; 2µM): 4; Selectivity ratio F [2]: 10.00; inhibition at 2 µM [2, 16]: 37.6%; inhibition at 2 µM [2, 17]: 24.6%; inhibition at 2 µM [2, 18]: 60.5%; inhibition at 2 µM [2, 19]: 22.2%; inhibition at 2 µM [2, 20]: 43.3%; IC50 [2]: > 10000 nM; HitlevelF ([2]; 2µM): 1
5 | COc1cc(C(=O)NC2CCc3ccccc32)cc(Cl)c1OC (stereo not shown) [TCMDC-124601] | – | – | – | – | – | – | – | – | – | – | 0.65% | 7.9% | 1.1% | 1.9% | -2.4% | 1.9% | -0.8% | – | – | – | –
6 | CN1CCC(N2CCC(Oc3cccc(C(=O)NCCCC4CCCC4)c3)CC2)CC1 [TCMDC-124677] | 46.8% | 55.2% | 20.7% | 57.6% | 3 | 28.5% | 33.3% | 20.8% | 15.0% | 0 | – | – | – | – | – | – | – | – | – | – | –
